Where two headings read alike, the source gives them in different places.
What was measured:
[1] = system: carrageenan induced rat paw edema; experiment: carrageenan-induced rat paw edema bioassay; assay type: in vivo; settings: % inhibition of carrageenan induced rat paw edema, intraperitoneal; for Anti-inflammatory activity, 0.5 h (%): 0.5 h after treatment; for Anti-inflammatory activity, 1 h (%): 1 h after treatment; for Anti-inflammatory activity, 2 h (%): 2 h after treatment; for Anti-inflammatory activity, 3 h (%): 3 h after treatment
Procedure: Male albino rats weighing 300 g where purchased from the Department of Zoology and Environmental Biology, University of Nigeria, Nsukka and kept at room temperature in a light controlled animal house. They were fasted with free access to water at least 12 h prior to the experiments. […] The positive control received celecoxib while the negative control received only the vehicle. Edema was produced by injecting 0.2 mL of a solution of 1% carrageenan in the hind paw. The rats were injected intraperitoneally with 1 mL suspension in 0.5% methylcellulose of the tested compounds and reference drug. Paw volume was measured by water displacement with a plethysmometer (UGO BASILE) before, 30 min, 1 h, 2 h and 3 h after treatment. The percentage was calculated by the following equation [25].
Anti-inflammatory activity (%) = (1-D/C)[…], where D represents the difference in paw volume before and after drug administration to the rats and C represents the difference of volume in the control groups. The approval for the use of animal was obtained from the University of Nigeria committee on experimental animal use. No sign of death was observed during the experiment.

[2] = Determination of LD50 in mice; settings: mouse, in vivo, ip; male mice, intraperitoneal, observation 72 h
Procedure: Male mice were divided into various groups and test compounds were administered in various doses intraperitoneally. […] All behavioral changes and deaths during the observation periods were recorded. The percentage of death at each dose level was then calculated, converted to probits and the LD50 (μM/kg) values were calculated. To observe the health status of the mice, they were monitored 4 times a day. […] For the purpose of ameliorating the suffering of the dying mice, CO2 euthanasia was applied. All the dead mice were disposed in bio-safety containers in accordance with local standard protocols. The mortality rate in each group was calculated according to the formula: Mortality rate(%)=(the number of dead mice/the number of mice in the group)×100.

COX-1 = molecular target: T1, COX-1 (Ovis aries, UniProt P05979); experiment: In vitro cyclooxygenase inhibitory assay (Cayman colorimetric COX (ovine) inhibitor screening kit), COX-1; assay type: biochemical; settings: read-out: COX-1 (%) inhibition
T1 construct: purchased Cayman chemicals, USA
T1 sequence (P05979 25-600): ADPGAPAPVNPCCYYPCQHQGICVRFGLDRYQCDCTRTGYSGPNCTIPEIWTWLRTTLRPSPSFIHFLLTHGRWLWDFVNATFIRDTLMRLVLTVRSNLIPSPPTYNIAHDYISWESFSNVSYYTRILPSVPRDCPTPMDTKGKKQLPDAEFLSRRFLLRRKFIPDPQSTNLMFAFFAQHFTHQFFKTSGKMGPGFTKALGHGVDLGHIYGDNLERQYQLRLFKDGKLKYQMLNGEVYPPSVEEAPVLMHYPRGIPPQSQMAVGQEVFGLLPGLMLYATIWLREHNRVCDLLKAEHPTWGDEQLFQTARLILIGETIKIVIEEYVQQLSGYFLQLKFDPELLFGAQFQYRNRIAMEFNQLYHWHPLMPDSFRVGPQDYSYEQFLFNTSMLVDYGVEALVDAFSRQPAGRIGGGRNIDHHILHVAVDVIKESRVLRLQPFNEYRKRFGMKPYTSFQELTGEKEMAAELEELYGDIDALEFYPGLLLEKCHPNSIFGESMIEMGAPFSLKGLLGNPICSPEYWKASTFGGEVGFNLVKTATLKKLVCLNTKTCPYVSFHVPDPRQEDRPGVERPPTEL
Procedure: (§1) The calculations were performed as per the kit guidelines.

COX-2 = molecular target: T2, COX-2 (Ovis aries, UniProt P79208); experiment: In vitro cyclooxygenase inhibitory assay (Cayman colorimetric COX (ovine) inhibitor screening kit), COX-2; assay type: biochemical; settings: for inhibition at 2 µM: read-out: COX-2 (%) inhibition; for S I (selectivity COX-2/COX-1): ratio of % inhibition COX-2/COX-1 at 2.0 μM
T2 construct: purchased Cayman chemicals, USA
T2 sequence (P79208 17-603): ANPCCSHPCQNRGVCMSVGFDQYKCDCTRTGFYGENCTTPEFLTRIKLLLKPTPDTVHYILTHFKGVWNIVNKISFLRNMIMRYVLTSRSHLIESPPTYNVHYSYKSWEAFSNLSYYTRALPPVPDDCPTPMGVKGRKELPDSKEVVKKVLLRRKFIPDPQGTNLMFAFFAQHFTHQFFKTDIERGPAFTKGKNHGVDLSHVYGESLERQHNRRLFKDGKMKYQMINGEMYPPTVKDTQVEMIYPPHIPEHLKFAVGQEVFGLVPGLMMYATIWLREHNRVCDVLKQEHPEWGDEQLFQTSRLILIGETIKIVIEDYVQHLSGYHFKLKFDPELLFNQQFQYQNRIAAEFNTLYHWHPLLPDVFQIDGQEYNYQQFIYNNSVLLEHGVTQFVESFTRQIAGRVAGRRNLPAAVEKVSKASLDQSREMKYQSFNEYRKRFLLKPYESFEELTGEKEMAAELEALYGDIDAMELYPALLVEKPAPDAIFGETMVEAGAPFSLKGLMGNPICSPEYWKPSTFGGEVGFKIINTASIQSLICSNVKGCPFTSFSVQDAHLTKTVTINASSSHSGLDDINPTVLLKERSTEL
Procedure: as §1

SMILES: Cc1ccc(S(=O)(=O)N(CC(=O)Nc2cc(C)ccn2)C(=O)c2ccccc2)cc1 [Compound 7i, 2-[N-(4-methylbenzenesulfonyl)-1-phenylformamido]-N-(4-methylpyridin-2-yl)acetamide]
- Anti-inflammatory activity, 0.5 h (%) [1]: 24.62%
- Anti-inflammatory activity, 1 h (%) [1]: 23.53%
- Anti-inflammatory activity, 2 h (%) [1]: 16.78%
- Anti-inflammatory activity, 3 h (%) [1]: 12.47%
- LD50 at 72 h [2]: 18.2 µmol/kg
- inhibition at 2 µM (COX-1; concentration of 2.0 μM): 3%
- inhibition at 2 µM (COX-2; concentration of 2.0 μM): 18%
- S I (selectivity COX-2/COX-1) (COX-2): 6.00

SMILES: Cc1ccnc(NC(=O)[C@H](Cc2cc3ccccc3[nH]2)N(C(=O)c2ccccc2)S(=O)(=O)c2ccc([N+](=O)[O-])cc2)c1 [Compound 7c, (2S)-3-(1H-indol-2-yl)-N-(4-methylpyridin-2-yl)-2-[N-(4-nitrobenzenesulfonyl)-1-phenylformamido]propanamide]
- Anti-inflammatory activity, 0.5 h (%) [1]: 49.23%
- Anti-inflammatory activity, 1 h (%) [1]: 62.35%
- Anti-inflammatory activity, 2 h (%) [1]: 75.75%
- Anti-inflammatory activity, 3 h (%) [1]: 88.89%
- LD50 at 72 h [2]: 8.3 µmol/kg
- inhibition at 2 µM (COX-1): 2%
- inhibition at 2 µM (COX-2): 70%

SMILES: Cc1ccc(S(=O)(=O)N2CC(O)C[C@H]2C(=O)Nc2cc(C)ccn2)cc1 (stereo partly drawn) [Compound 7o, (2S)-4-Hydroxy-1-(4-methylbenzenesulfonyl)-N-(4-methylpyridin-2-yl)pyrrolidine-2-carboxamide]
- Anti-inflammatory activity, 0.5 h (%) [1]: 21.54%
- Anti-inflammatory activity, 1 h (%) [1]: 11.23%
- Anti-inflammatory activity, 2 h (%) [1]: 8.78%
- Anti-inflammatory activity, 3 h (%) [1]: 5.56%
- LD50 at 72 h [2]: 10.1 µmol/kg
- inhibition at 2 µM (COX-1): 6%
- inhibition at 2 µM (COX-2): 18%

SMILES: Cc1ccc(S(=O)(=O)N(C(=O)c2ccccc2)[C@H](C(=O)Nc2cc(C)ccn2)C(C)C)cc1 [Compound 7n, (2S)-3-Methyl-2-[N-(4-methylbenzenesulfonyl)-1-phenylformamido]-N-(4-methylpyridin-2-yl) butanamide]
- Anti-inflammatory activity, 0.5 h (%) [1]: 21.54%
- Anti-inflammatory activity, 1 h (%) [1]: 16.47%
- Anti-inflammatory activity, 2 h (%) [1]: 10.56%
- Anti-inflammatory activity, 3 h (%) [1]: 3.09%
- LD50 at 72 h [2]: 20.1 µmol/kg
- inhibition at 2 µM (COX-1; concentration of 2.0 μM): 32%
- inhibition at 2 µM (COX-2; concentration of 2.0 μM): 48%
- selectivity for COX-2 (in words) (COX-2; from COX-2/COX-1 % inhibition at 2.0 μM): non-selective
- S I (selectivity COX-2/COX-1) (COX-2): 1.50

SMILES: CCC(C)[C@@H](C(=O)Nc1cc(C)ccn1)N(C(=O)c1ccccc1)S(=O)(=O)c1ccc([N+](=O)[O-])cc1 (stereo partly drawn) [Compound 7e, (2S)-3-Methyl-N-(4-methylpyridin-2-yl)-2-[N-(4-nitrobenzenesulfonyl)-1-phenylformamido]pentanamide]
- Anti-inflammatory activity, 0.5 h (%) [1]: 26.15%
- Anti-inflammatory activity, 1 h (%) [1]: 25.88%
- Anti-inflammatory activity, 2 h (%) [1]: 19.38%
- Anti-inflammatory activity, 3 h (%) [1]: 16.05%
- LD50 at 72 h [2]: 13.1 µmol/kg
- inhibition at 2 µM (COX-1; concentration of 2.0 μM): 4%
- inhibition at 2 µM (COX-2; concentration of 2.0 μM): 17%
- S I (selectivity COX-2/COX-1) (COX-2): 4.25

SMILES: Cc1ccnc(NC(=O)[C@H](C(C)C)N(C(=O)c2ccccc2)S(=O)(=O)c2ccc([N+](=O)[O-])cc2)c1 [Compound 7f, (2S)-3-Methyl-N-(4-methylpyridin-2-yl)-2-[N-(4-nitrobenzenesulfonyl)-1-phenylformamido]butanamide]
- Anti-inflammatory activity, 0.5 h (%) [1]: 24.62%
- Anti-inflammatory activity, 1 h (%) [1]: 17.65%
- Anti-inflammatory activity, 2 h (%) [1]: 14.84%
- Anti-inflammatory activity, 3 h (%) [1]: 1.85%
- LD50 at 72 h [2]: 15.8 µmol/kg
- inhibition at 2 µM (COX-1; concentration of 2.0 μM): 15%
- inhibition at 2 µM (COX-2; concentration of 2.0 μM): 54%
- S I (selectivity COX-2/COX-1) (COX-2): 3.6

SMILES: Cc1ccc(S(=O)(=O)N2CCC[C@H]2C(=O)Nc2cc(C)ccn2)cc1 [Compound 7p, (2S)-1-(4-Methylbenzenesulfonyl)-N-(4-methylpyridin-2-yl)pyrrolidine-2-carboxamide]
- Anti-inflammatory activity, 0.5 h (%) [1]: 29.15%
- Anti-inflammatory activity, 1 h (%) [1]: 28.24%
- Anti-inflammatory activity, 2 h (%) [1]: 30.34%
- Anti-inflammatory activity, 3 h (%) [1]: 33.26%
- LD50 at 72 h [2]: 9.9 µmol/kg
- inhibition at 2 µM (COX-1): 8%
- inhibition at 2 µM (COX-2): 20%

SMILES: Cc1ccnc(NC(=O)[C@H](CC(C)C)N(C(=O)c2ccccc2)S(=O)(=O)c2ccc([N+](=O)[O-])cc2)c1 [Compound 7d, (2S)-4-Methyl-N-(4-methylpyridin-2-yl)-2-[N-(4-nitrobenzenesulfonyl)-1-phenylformamido]pentanamide]
- Anti-inflammatory activity, 0.5 h (%) [1]: 52.31%
- Anti-inflammatory activity, 1 h (%) [1]: 17.65%
- Anti-inflammatory activity, 2 h (%) [1]: 10.54%
- Anti-inflammatory activity, 3 h (%) [1]: 10.15%
- LD50 at 72 h [2]: 12.6 µmol/kg
- inhibition at 2 µM (COX-1; concentration of 2.0 μM): 10%
- inhibition at 2 µM (COX-2; concentration of 2.0 μM): 20%
- S I (selectivity COX-2/COX-1) (COX-2): 2.00

SMILES: Cc1ccnc(NC(=O)[C@H](Cc2ccccc2)N(C(=O)c2ccccc2)S(=O)(=O)c2ccc([N+](=O)[O-])cc2)c1 [Compound 7b, (2S)-N-(4-methylpyridin-2-yl)-2-[N-(4-nitrobenzenesulfonyl)-1-phenylformamido]-3-phenyl propanamide]
- Anti-inflammatory activity, 0.5 h (%) [1]: 32.31%
- Anti-inflammatory activity, 1 h (%) [1]: 17.06%
- Anti-inflammatory activity, 2 h (%) [1]: 17.03%
- Anti-inflammatory activity, 3 h (%) [1]: 12.96%
- LD50 at 72 h [2]: 14.2 µmol/kg
- inhibition at 2 µM (COX-1; concentration of 2.0 μM): 8%
- inhibition at 2 µM (COX-2; concentration of 2.0 μM): 52%
- S I (selectivity COX-2/COX-1) (COX-2): 6.5

SMILES: Cc1ccnc(NC(=O)[C@@H]2CC(O)CN2S(=O)(=O)c2ccc([N+](=O)[O-])cc2)c1 (stereo partly drawn) [Compound 7g, (2S)-4-Hydroxy-N-(4-methylpyridin-2-yl)-1-(4-nitrobenzenesulfonyl)pyrrolidine-2-carboxamide]
- Anti-inflammatory activity, 0.5 h (%) [1]: 46.92%
- Anti-inflammatory activity, 1 h (%) [1]: 53.53%
- Anti-inflammatory activity, 2 h (%) [1]: 58.84%
- LD50 at 72 h [2]: 9.9 µmol/kg
- inhibition at 2 µM (COX-1): 18%
- inhibition at 2 µM (COX-2): 20%
